Target: T1, human membrane progestin receptor α (hmPRα) (Homo sapiens, UniProt Q86WK9)
T1 sequence (Q86WK9 1-346): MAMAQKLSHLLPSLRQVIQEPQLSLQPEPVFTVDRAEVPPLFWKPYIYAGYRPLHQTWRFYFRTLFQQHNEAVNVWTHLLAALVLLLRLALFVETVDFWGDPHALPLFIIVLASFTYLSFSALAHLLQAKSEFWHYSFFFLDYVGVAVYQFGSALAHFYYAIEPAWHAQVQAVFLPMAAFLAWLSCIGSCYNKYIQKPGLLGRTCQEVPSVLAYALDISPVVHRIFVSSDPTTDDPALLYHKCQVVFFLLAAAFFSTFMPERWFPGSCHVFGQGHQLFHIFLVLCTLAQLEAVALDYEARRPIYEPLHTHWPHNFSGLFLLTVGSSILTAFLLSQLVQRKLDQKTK
Assay: GQD-hmPRα fluorescence competition with P4-BSA-FITC
Format: binding

Row | SMILES | IC50 [nM]
1 | CCCC(O)C(=O)OC(CCC)C(=O)O (centres unmarked) [1-CB 2-HPNA, 1-carboxybutyl 2-hydroxypentanoate] | 1260
2 | CC(=O)[C@H]1CC[C@H]2[C@@H]3CCC4=CC(=O)CC[C@]4(C)[C@H]3CC[C@]12C [progesterone] | 1900
